Consider 7 compounds from publication PMC6628379, “Synthesis and Biological Evaluation of Novel Selenyl and Sulfur-L-Dopa Derivatives as Potential Anti-Parkinson’s Disease Agents” (Biomolecules, 2019).

A short description of series [1]: Octanol/water partition coefficient (logP o/w). To be noted: n-octanol / phosphate buffer pH 7.4, HPLC. It counts as physicochemical. As to the method: The clogP values were calculated using ACD LogP software package, version 4.55 (Advanced Chemistry Development Inc., Toronto, Canada). Octanol/water partition coefficients (logP o/w) were determined by placing 5 mg of SP into 1 mL of anhydrous n-octanol and an equal volume of phosphate buffer pH 7.4. After vigorously shaking, the resulting mixture was allowed to stand until the complete separation of the two phases. Finally, each phase was filtered and analyzed using HPLC [16].

Series [2] in a line: BBB-PAMPA (parallel artificial membrane permeability). The series is classed as in vitro ADME, porcine. To be noted: for Classification: PAMPA-BBB class by Pe; for Papp at 16 h: pig, PAMPA-BBB, 16 h at room temperature, pH 7.4, read-out: Pe; for capacity to cross the BBB: BBB-PAMPA. The procedure: The blood–brain barrier (BBB)-PAMPA method was used to evaluate the ability of SPs to cross the BBB via passive diffusion. The artificial membrane of each microplate was coated with 5 µL of a porcine polar brain lipid extract mixture (purchased from Avantis Polar Lipids, Alabaster, AL, USA). A total of 150 µL of drug solution was put on the membrane (donor plate) while the bottom plate was filled with 300 µL of buffer solution (acceptor plate). The system was incubated for 16 h at room temperature and then the concentration of the drug in the acceptor plate was evaluated using HPLC. The concentration of the drug at the theoretical equilibrium was determined diluting 500 µM of SP solution with phosphate buffer pH 7.4 and then analyzed using HPLC [18]. Pe (10^−6 cm/s) was calculated as the effective permeability coefficient.
A general note: PAMPA measures passive passage across an artificial lipid membrane.

The test system of series [3] is undifferentiated SH-SY5Y human neuroblastoma cells. The experiment in a line: MTT cell viability, undifferentiated SH-SY5Y cells. The series is classed as cell-based.
Series [4] deals with differentiated SH-SY5Y human neuroblastoma cells. Kind of series: MTT cell viability, RA/PMA-differentiated SH-SY5Y cells. To be noted: dopaminergic differentiated cells, 48 h, 100 µM. The series is classed as cell-based.
Series [5] deals with differentiated SH-SY5Y neuroblastoma cells. Kind of series: Nitroblue tetrazolium (NBT) assay. To be noted: 1 µM, 24 h incubation. The series is classed as cell-based, human. As to the method:
The differentiated SH-SY5Y cells were treated with SP6 and/or LD compounds at 1 µM for 24 h, and then 10^6 cells were harvested, centrifuged for 5 min at 1200 rpm, and resuspended in 1 mL 0.9% NaCl, in which NBT (nitro blue tetrazolium chloride, 1 mg/mL) was dissolved. The cells were incubated for 3 h at 37 °C, centrifuged (10 min at 1200 rpm), resuspended in 1 mL dimethyl sulfoxide, and left for 20 min at 37 °C. Then, cells were plated in a 96 well plate (2 x 10^5 cell/well) and read at 550 nm using a scanning multi-well spectrophotometer (Cary50MPR, Varian).

Series [6] relates to differentiated SH-SY5Y human neuroblastoma cells. The experiment in a line: Intracellular ROS measurement (H2DCFDA assay). It counts as cell-based. To be noted: 1 µM for 24 h, then 25 µM H2O2; 2.5 and 5 min; vs CTRL + 25 µM H2O2. As to the method: SHSY-5Y human neuroblastoma cells were plated (2700 cells/well) into special optics 96-well plates (Corning-Costar, New York, USA) and the cells were treated with retinoic acid (RA)/phorbol 12-myristate 13-acetate (PMA) in order to obtain a dopaminergic phenotype. The differentiated cells were treated with SP1-6 at 1 μM for 24 h and then washed with an imaging buffer (125 mM NaCl, 5 mM KCl, 1.2 mM MgSO4, 5 mM glucose, 25 mM HEPES, and 2 mM CaCl2). A concentration of 10 μM of 2',7'-dichlorofluorescin diacetate (H2DCFDA, Molecular probes, Life Technologies REF […]) was added and the plates were incubated at 37 °C for 30 min. After the incubation, cells were washed with an imaging buffer and treated with 25 μM H2O2 for an immediate fluorescence measurement. Plates were read every 50 s from 0 to 5 min for kinetic data analysis using a microplate reader (Synergy H1, BioTek), with excitation and emission wavelengths at 490 nm and 520 nm, respectively, and analyzed by Gen 5 version 2.08 (BioTek).

Series [7] has as its system RA/PMA-differentiated and 6-OHDA-lesioned SH-SY5Y human neuroblastoma cells. The experiment in a line: Neuroprotection against 6-OHDA (MTT). It counts as cell-based. To be noted: 1 µM. The procedure: (§1) In order to obtain a dopaminergic phenotype, the cells were treated with retinoic acid (RA)/phorbol 12-myristate 13-acetate (PMA) in a medium supplemented with RA (10 μM) for three days; then, the medium was removed and replaced with growth medium containing PMA (80 nM) for three days.
(§2) SP1–6 were dissolved in dimethyl sulfoxide (DMSO). SH-SY5Y cells were plated onto 96-well plates (2700 cell/well). The undifferentiated cells (UC) were grown for 24 h in normal medium and then incubated with seven different compounds at different concentrations (1, 10, and 100 µM). […] After 24 h and 48 h of incubation with or without the compounds, the both sets of cells (UC and DC) were assessed for viability by using a colorimetric assay of 3-[4,5-dimethylthiazol-2-yl]-2,5-diphenyltetrazolium bromide (MTT). The differentiated SH-SY5Y cells were treated with SP6 or LD compounds at 1 µM for 1 h and then exposed to 25, 50, 75, and 150 µM 6-OHDA. After a further 24 h of incubation, the cultures were assessed for viability using an MTT assay. For experiments with the neurotoxin H2O2, the differentiated SH-SY5Y cells were pretreated with SP6 or LD compounds at 1 µM for 24 h and then exposed to 25, 150, and 300 µM H2O2 for a further 24 h. Cell viability was detected using the MTT assay.

For series [8], the system named is differentiated and H2O2-lesioned SH-SY5Y human neuroblastoma cells. Kind of series: Neuroprotection against H2O2 (MTT). It counts as cell-based. To be noted: 1 µM. The procedure: as §1, §2
Series [9] can be described thus: Stability in human plasma. The series is classed as in vitro ADME. To be noted: for half-life at 1 mg/mL: human, 80% human plasma with 20% 0.02 M phosphate buffer. As to the method:
Human plasma was purchased from 3H Biomedical (Uppsala, Sweden, Europe). SP stock solution was added to a mixture of 80% plasma and 20% of 0.02 M phosphate buffer (pH 7.4) at 37 °C to obtain a final drug concentration of 1 mg/mL. Samples of 100 μL were taken at various times, and 200 μL of MeOH containing 0.01 M HCl was used to stop the enzymatic activity. The samples were centrifuged for 5 min at 5000× g, and the resultant supernatants were filtered and analyzed using HPLC [17].

Where [10] appears, read: 24 h, all tested concentrations (1, 10, 100 µM).
Where [11] appears, read: 24 h before and during 24 h with 150 µM H2O2.
Setting [12] is: 24 h before and during 24 h with 300 µM H2O2.
Where [13] appears, read: 80% human plasma, 20% 0.02 M phosphate buffer pH 7.4, 37 °C.
Where [14] appears, read: pH 7.4, 80% human plasma, 20% 0.02 M phosphate buffer pH 7.4, 37 °C, read-out: t1/2.
Where [15] appears, read: pH 7.4, human plasma, read-out: half-life.

Entries after “also recorded” stand apart in the source; their conditions may differ. Structures can show the parent of a compound that is named as a salt. Where two headings read alike, the source gives them in different places. Where a SMILES comes first, the peptide text is derived from it. [ ]: non-standard residue; d: D form. dDopa = N[C@H](Cc1ccc(O)c(O)c1)C(=O)O; dSeMet = C[Se]CC[C@@H](N)C(=O)O Bounds are passed on as bounds.

`N[C@@H](Cc1ccc(O)c(O)c1)C(=O)O` [LD, L-p-3,4-dihydroxyphenylalanine hydrochloride, reference compound] gave a logP in series [1] of -2.46. Also, in series [2], the Classification entry is recorded as “CNS^− (CNS^− (indicative of low BBB permeation): Pe (10^−6 cm/s) < 2)”. Further, the Papp at 16 h in series [2] was determined as 0.75 ×10⁻⁶ cm/s. For the same compound, the cytotoxic effect entry in [3] (setting [10]) is “did not show cytotoxic effects”; in series [3] (48 h, 100 µM) it was “toxic effect”; in series [4] it was “detrimental effect”. For the same compound, the superoxide anion level entry in series [5] is listed as “seemed to increase it; also recorded: increase in superoxide anion levels”. In addition, the “antioxidant activity (intracellular ROS)” value in series [6] is “significant antioxidant activity”. Besides, the “protection against 6-OHDA toxicity (cell viability)” value in [7] (1 h before and during 24 h with 150 µM 6-OHDA) is given as “partially counteract the toxic effect”. The “protection against H2O2 toxicity (cell viability)” value in series [8] (setting [11]) and in series [8] (setting [12]) was “ineffective” each time.

As for `COC(=O)[C@@H](Cc1ccc(OC(C)=O)c(OC(C)=O)c1)NC(=O)CSSCC(=O)N[C@H](Cc1ccc(OC(C)=O)c(OC(C)=O)c1)C(=O)OC` [SP1, Methyl (2R)-3-[3,4-bis(acetyloxy)phenyl]-2-{2-[({[(2R)-3-[3,4-bis(acetyloxy)phenyl]-1-methoxy-1-oxopropan-2-yl]carbamoyl}methyl)disulfanyl]acetamido}propanoate], in series [1], the logP was -0.163. Also, in [2], the Classification result was “CNS^− (CNS^− (indicative of low BBB permeation): Pe (10^−6 cm/s) < 2)” and the Papp at 16 h worked out at 1.15 ×10⁻⁶ cm/s. In addition, the Kobs in series [9] (setting [13]) was 0.024 (±0.001) min^−1. The half-life at 1 mg/mL in [9] (setting [14]) turned out to be 0.48 h.

The compound `COC(=O)[C@@H](Cc1ccc(OC(C)=O)c(OC(C)=O)c1)NC(=O)CCSSCCC(=O)N[C@H](Cc1ccc(OC(C)=O)c(OC(C)=O)c1)C(=O)OC` [SP2, Methyl (2R)-3-[3,4-bis(acetyloxy)phenyl]-2-{3-[(2-{[(2R)-3-[3,4-bis(acetyloxy)phenyl]-1-methoxy-1-oxopropan-2-yl]carbamoyl}ethyl)disulfanyl]propanamido}propanoate] had a logP in series [1] of 0.828. Further, in series [2], the Classification entry is on record as “CNS^− (CNS^− (indicative of low BBB permeation): Pe (10^−6 cm/s) < 2)” and the Papp at 16 h was found to be 1.82 ×10⁻⁶ cm/s. Also, in series [9] (setting [13]), the Kobs is 0.010 (±0.001) min^−1. Moreover, in series [9] (setting [14]), the half-life at 1 mg/mL worked out at 1.1 h.

In the case of `COC(=O)[C@@H](Cc1ccc(OC(C)=O)c(OC(C)=O)c1)NC(=O)[C@@H](CSSC[C@@H](NC(C)=O)C(=O)N[C@H](Cc1ccc(OC(C)=O)c(OC(C)=O)c1)C(=O)OC)NC(C)=O` [SP3, Methyl (2R)-3-[3,4-bis(acetyloxy)phenyl]-2-[(2S)-3-{[(2S)-2-{[(2R)-3-[3,4-bis(acetyloxy)phenyl]-1-methoxy-1-oxopropan-2-yl]carbamoyl}-2-acetamidoethyl]disulfanyl}-2-acetamidopropanamido]propanoate], the logP in series [1] was determined as 1.07. Moreover, in [2], the “capacity to cross the BBB” value is reported as “possess the capacity to cross the BBB” and the Papp at 16 h amounted to 3.1 ×10⁻⁶ cm/s. In series [9] (setting [13]), the Kobs is on record as 0.014 (±0.003) min^−1. In addition, the half-life at 1 mg/mL in series [9] (setting [14]) is 0.837 h.

On to `COC(=O)[C@@H](Cc1ccc(OC(C)=O)c(OC(C)=O)c1)NC(=O)C[Se][Se]CC(=O)N[C@H](Cc1ccc(OC(C)=O)c(OC(C)=O)c1)C(=O)OC` [SP4, Methyl (2R)-3-[3,4-bis(acetyloxy)phenyl]-2-{2-[({[(2R)-3-[3,4-bis(acetyloxy)phenyl]-1-methoxy-1-oxopropan-2-yl]carbamoyl}methyl)diselanyl]acetamido}propanoate], for which, in series [1], the logP is -1.17. Further, in series [2], the Classification entry was “CNS^+ (CNS^+ (indicative of high BBB permeation): Pe (10^−6 cm/s) > 4)” and the Papp at 16 h turned out to be 0.94 ×10⁻⁶ cm/s. In addition, in [9] (setting [13]), the Kobs result is listed as “Immediate hydrolysis” and the t1/2 result was “Immediate hydrolysis”.

On to `COC(=O)[C@@H](Cc1ccc(O)c(O)c1)NC(=O)[C@@H](CC[Se]C)NC(C)=O` [SP5, Methyl (2R)-3-(3,4-dihydroxyphenyl)-2-[(2R)-2-acetamido-4-(methylselanyl)butanamido]-propanoate] (Ac-[dSeMet]-[dDopa]-OMe), for which the logP in series [1] was 0.51. Also, in series [2], the “capacity to cross the BBB” value is “unable to completely cross the BBB”, the Classification result is “CNS^− (CNS^− (indicative of low BBB permeation): Pe (10^−6 cm/s) < 2)” and the Papp at 16 h worked out at 2.3 ×10⁻⁶ cm/s. Also, in [9] (setting [13]), the Kobs is 0.005 (±0.0001) min^−1. Also, in series [9] (setting [14]), the half-life at 1 mg/mL was 2.1 h. Further, in series [9] (setting [15]), the half-life at 1 mg/mL is over 2 h.

In [1], `COC(=O)[C@@H](Cc1ccc(OC(C)=O)c(OC(C)=O)c1)NC(=O)[C@@H](CC[Se]C)NC(C)=O` [SP6, Methyl (2R)-3-[3,4-bis(acetyloxy)phenyl]-2-[(2R)-2-acetamido-4-(methylselanyl)butanamido]-propanoate] showed a logP of 1.44. The “capacity to cross the BBB” value in series [2] is on record as “possess the capacity to cross the BBB”. The Papp at 16 h in series [2] stood at 4.5 ×10⁻⁶ cm/s. In addition, in [9] (setting [13]), the Kobs is 0.004 (±0.0001) min^−1. In [9] (human plasma), the “stability in plasma” value is “resistant to the enzymatic hydrolyses by plasma esterases”. In addition, the half-life at 1 mg/mL was 2.89 h in [9] (setting [14]) and over 2 h in series [9] (setting [15]). The cytotoxic effect result in series [3] (setting [10]) is on record as “did not show cytotoxic effects”. The superoxide anion level result in [5] is listed as “significantly reduced the superoxide anion level”. Moreover, the “antioxidant activity (intracellular ROS)” value in [6] is on record as “significant antioxidant activity; also recorded: able to reduce ROS levels”. Besides, the “protection against 6-OHDA toxicity (cell viability)” value in [7] (1 h before and during 24 h with 25, 50, 75, 150 µM 6-OHDA) is reported as “protective action against the toxin at all tested concentrations”. Also, the “protection against H2O2 toxicity (cell viability)” value is recorded as “effective in countering the toxic effect” in series [8] (setting [11]) and “partially countered” in series [8] (setting [12]).

Broadly, the logP is a log measure of how a compound divides between an organic and an aqueous phase. Higher therefore signals higher lipophilicity.
